Results reported in PMC8397948, “Effect of Selected Antidepressants on Placental Homeostasis of Serotonin: Maternal and Fetal Perspectives” (Pharmaceutics, 2021).
Where a name gives a salt, the structure may show the parent alone.

Columns and labels:
[1] = biological target: T1, OCT3 (Rattus norvegicus, UniProt O88446); experiment: In situ open-circuit perfusion of rat term placenta: 5-HT extraction from fetal circulation; type: in vivo
T1 sequence (O88446 1-551): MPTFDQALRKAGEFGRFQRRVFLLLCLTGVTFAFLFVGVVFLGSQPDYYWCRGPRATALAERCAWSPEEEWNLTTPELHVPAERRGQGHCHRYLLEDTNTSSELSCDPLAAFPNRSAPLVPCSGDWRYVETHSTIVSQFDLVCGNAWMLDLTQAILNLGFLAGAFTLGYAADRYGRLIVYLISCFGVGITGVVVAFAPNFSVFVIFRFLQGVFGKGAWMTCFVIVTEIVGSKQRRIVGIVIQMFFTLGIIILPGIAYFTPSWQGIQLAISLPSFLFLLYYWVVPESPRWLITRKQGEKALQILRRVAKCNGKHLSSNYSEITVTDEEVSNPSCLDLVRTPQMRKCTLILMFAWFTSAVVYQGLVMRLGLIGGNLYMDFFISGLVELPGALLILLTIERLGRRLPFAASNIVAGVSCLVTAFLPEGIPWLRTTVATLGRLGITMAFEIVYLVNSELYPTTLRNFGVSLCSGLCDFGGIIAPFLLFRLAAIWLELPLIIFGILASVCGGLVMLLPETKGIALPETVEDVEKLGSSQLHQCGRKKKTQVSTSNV

[2] = pregnant women or women; read-out: Cmax (maximum steady-state plasma concentration); cited from earlier work
[3] = biological target: T2, OCT3 (Homo sapiens, UniProt O75751); experiment: [3H]5-HT uptake by basal membrane (BM) vesicles from human term placenta; type: biochemical; conditions: 100 nM [3H]5-HT, 10 min preincubation, room temperature, n ≥ 4, read-out: IC50 BM (OCT3-mediated 5-HT uptake)
T2 construct: MVM and BM vesicles were used to evaluate the effects of antidepressants on SERT- and OCT3-mediated uptake of 5-HT, respectively; from tissue; host or cells: human term placenta, basal membrane (BM) vesicles
T2 sequence (O75751 1-556): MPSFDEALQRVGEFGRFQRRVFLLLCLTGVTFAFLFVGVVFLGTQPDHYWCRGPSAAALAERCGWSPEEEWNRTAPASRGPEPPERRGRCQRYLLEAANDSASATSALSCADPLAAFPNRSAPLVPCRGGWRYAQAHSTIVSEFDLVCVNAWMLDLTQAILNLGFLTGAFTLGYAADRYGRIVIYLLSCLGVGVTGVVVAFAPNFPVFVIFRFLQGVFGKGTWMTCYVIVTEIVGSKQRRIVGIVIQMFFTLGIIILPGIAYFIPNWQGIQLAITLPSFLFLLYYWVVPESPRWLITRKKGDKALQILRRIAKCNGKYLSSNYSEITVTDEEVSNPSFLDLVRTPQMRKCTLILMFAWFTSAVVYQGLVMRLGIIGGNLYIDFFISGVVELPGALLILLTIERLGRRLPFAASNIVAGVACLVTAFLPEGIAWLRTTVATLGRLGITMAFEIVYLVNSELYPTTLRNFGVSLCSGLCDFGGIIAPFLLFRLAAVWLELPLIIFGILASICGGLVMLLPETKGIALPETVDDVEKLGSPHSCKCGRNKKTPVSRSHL
Procedure: Maternal decidua and chorionic plate were removed, and placental villous tissue was cut into small pieces. The tissue was homogenized in a solution containing 250 mM sucrose, 10 mM Tris-Hepes (pH 7.2), 5 mM EGTA, 5 mM EDTA and 1 mM phenylmethylsulfonyl fluoride (PMSF). Microvillous and basal membrane (MVM and BM, respectively) vesicles were prepared simultaneously, using a previously described differential centrifugation method based on Mg^2+ precipitation and separation of MVM and BM in a sucrose gradient [40]. All these procedures were performed at 4 °C.
MVM and BM samples were resuspended in intravesicular buffer (290 mM sucrose, 5 mM Hepes, 5 mM Tris; pH 7.4), and vesiculated by passaging 20 times through a 25-gauge needle as previously described [32]. Protein concentration was measured using the BCA assay.
Uptake of [^3H]5-HT into MVM or BM vesicles was measured at room temperature using the rapid vacuum filtration technique as previously described [32]. […] Filter-associated radioactivity was determined by liquid scintillation counting. Non-specific tracer binding to the filter and plasma membranes was accounted for by subtracting radioactivity measured in protein-free controls and uptake at time zero, respectively, from the total vesicle uptake measurements. […]

[4] = Published plasma concentrations and fetal-to-maternal ratios in (pregnant) women; type: in vivo, human; conditions: matches Ca x F/M ratio of published values
[5] = 1 µM (therapeutic concentration), fetal sex not considered
[6] = 100 µM antidepressant, 1 nM [3H]5-HT, both fetal sexes together, vs control
[7] = 100 µM antidepressant, male placentas

Compound: CN(C)CCCC1(c2ccc(F)cc2)OCc2cc(C#N)ccc21 (centres unmarked) [Citalopram, citalopram hydrobromide]
- Effect on placental extraction of 5-HT from fetal circulation [1, 5]: no significant inhibition
- Effect on placental extraction of 5-HT from fetal circulation [1, 6]: significantly decreased
- Cmax [2]: 1200 nM

Compound: CCN1/C(=C/c2ccc3ccccc3[n+]2CC)C=Cc2ccccc21.[I-] [decynium-22]
- Effect of model OCT3 inhibitor on 5-HT extraction from fetal circulation ([1]; 10 µM decynium-22): sensitive to co-administration of decynium-22

Compound: CN[C@H]1CC[C@@H](c2ccc(Cl)c(Cl)c2)c2ccccc21 [Sertraline, sertraline hydrochloride]
- Effect on 5-HT extraction from circulation of male fetuses [1, 7]: susceptible to inhibition

Compound: COCCCC/C(=N\OCCN)c1ccc(C(F)(F)F)cc1 [Fluvoxamine, fluvoxamine maleate]
- IC50 [3]: 15.2 nM
- Effect on placental extraction of 5-HT from fetal circulation [1, 5]: no significant inhibition
- Effect on placental extraction of 5-HT from fetal circulation [1, 6]: significantly decreased
- Effect on 5-HT extraction from circulation of male fetuses [1, 7]: susceptible to inhibition
- Ca;fetal (average fetal plasma concentration) [4]: 348 nM
- Cmax [2]: 1300 nM

Compound: COc1ccc(C(CN(C)C)C2(O)CCCCC2)cc1 (centres unmarked) [Venlafaxine, venlafaxine hydrochloride]
- Effect on 5-HT extraction from circulation of male fetuses [1, 7]: susceptible to inhibition

Compound: CNCCC(Oc1ccc(C(F)(F)F)cc1)c1ccccc1 (centres unmarked) [Fluoxetine, fluoxetine hydrochloride]
- Effect on 5-HT extraction from circulation of male fetuses [1, 7]: susceptible to inhibition

Compound: Fc1ccc([C@@H]2CCNC[C@H]2COc2ccc3c(c2)OCO3)cc1 [Paroxetine, paroxetine hydrochloride]
- IC50 [3]: 4.39 nM
- Effect on placental extraction of 5-HT from fetal circulation [1, 5]: no significant inhibition
- Effect on 5-HT extraction from fetal circulation in male placentas ([1]; 1 µM (therapeutic concentration), male placentas): potent inhibitor in males
- Effect on placental extraction of 5-HT from fetal circulation [1, 6]: significantly decreased
- Effect on 5-HT extraction from circulation of female fetuses ([1]; 100 µM antidepressant, female placentas): prone to inhibition
- Effect on 5-HT extraction from circulation of male fetuses [1, 7]: susceptible to inhibition
- Cmax [2]: 1000 nM
